Assay results taken from the RepoRT retention time repository (doi:10.1016/j.jhazmat.2019.121712).

assay: Thermo Scientific Acclaim RSLC 120 C18, 100 × 2.1 mm, 2.2 µm, 30 °C; A: 90% water + 10% methanol + 0.01% formic acid + 5 mM ammonium formate; B: methanol + 0.01% formic acid + 5 mM ammonium formate; gradient (min/%B) 0.1/1 3/39 14/99.9 16/99.9; settings: stereoisomer not certain

Structure (SMILES)	LC retention time [min]
CCCCCn1nc(C(=O)Nc2cccc3ccccc23)c2ccccc21	13
CCCC(C(=O)c1ccc2ccccc2c1)N1CCCC1 (centres undefined)	7.33
CN1CCC23c4c5ccc(O)c4OC2C(=O)CCC3C1C5 (centres undefined)	2.91
CCC1(c2cccc(O)c2)CCCCN(C)C1 (centres undefined)	4.74
Cc1ccc(S(=O)(=O)NC(=O)NN2CCCCCC2)cc1	8.09
COc1ccc(C(=O)c2cn(CCCCCO)c3ccccc23)cc1	9.18
CCOC(=O)CC(SP(=O)(OC)OC)C(=O)OCC (centres undefined)	7.01
COC(=O)c1ccccc1S(=O)(=O)NC(=O)Nc1nc(C)nc(OC)n1	6.31
C=C1CC(=CC)C(=O)OC2CC[N+]3([O-])CC=C(COC(=O)C1(C)O)C23 (centres undefined)	4.5
Cc1nnc(-c2ccccc2)c(=O)[nH]1	5.29
CNC(=O)Oc1cccc2c1OC(C)(C)O2	7.02
CCCN(CCC)c1c([N+](=O)[O-])cc(C(C)C)cc1[N+](=O)[O-]	13.2
CCOP(=S)(OCC)Oc1ccc(S(C)(=O)=O)cc1	8.48
COc1ccc(C(=O)c2cn(CCCCC(=O)O)c3ccccc23)cc1	8.81
O=C(O)CCCO	1.95
CC(C)OP(=O)(OC(C)C)SCc1ccccc1	10.6
Cc1ccsc1C=CC1=NCCCN1C	4.36
CCOC(=O)NC(=S)Nc1ccccc1NC(=S)NC(=O)OCC	8.61
CCCCCn1cc(C(=O)NC(C(N)=O)C(C)(C)C)c2ccccc21 (centres undefined)	11.1
CCC(=O)C(CCN(C)C)(c1ccccc1)c1ccccc1	7.68
CC(Cc1ccc2c(c1)OCO2)N(C)C (centres undefined)	4.08

Structure (SMILES)	LC retention time [min]
CN(C)CCc1ccc(O)cc1	2.28
O=C1OC(c2ccc(O)cc2)(c2ccc(O)cc2)c2ccccc21	7.06
CCSc1cc(OC)c(CCN)cc1OC	5.88
CCCSC(=O)N(CCC)CCC	11.5
CCC(c1cccc(O)c1)C(C)CNC (centres undefined)	5.14
CCC(=O)C(CC(C)N(C)C)(c1ccccc1)c1ccccc1 (centres undefined)	8.04
COP(=S)(NC(C)C)Oc1ccccc1C(=O)OC(C)C (centres undefined)	11.7
Cc1cc2c(s1)Nc1ccccc1N=C2N1CCN(C)CC1	4.99
CCC(N)Cc1c[nH]c2ccccc12 (centres undefined)	5.04
O=C(Nc1ccc(C(=O)O)c(O)c1)c1ccccc1	5.47
Nc1ccc(S(=O)(=O)Nc2ccccn2)cc1	3.8
CCC(Cc1ccc2c(c1)OCO2)NC (centres undefined)	4.66
CCCCCn1cc(C(=O)c2cccc3ccccc23)c2cccc(O)c21	11.8
COc1ccc(C(CN(C)C)C2(O)CCCCC2)cc1 (centres undefined)	6.14
COc1cccc(C2(O)CCCCC2CN)c1 (centres undefined)	5.19
Nc1nc(N)c2nc(-c3ccccc3)c(N)nc2n1	4.68
CCC(C)c1ccccc1OC(=O)NC (centres undefined)	9.05
C=C1CC(=CC)C(=O)OC2CCN3CC=C(COC(=O)C1(C)O)C23 (centres undefined)	4.17
COP(=O)(OC)Oc1ccc(SC)c(C)c1	8.82
CCCCCCCC(C)(C)c1ccc(C2CCCC(O)C2)c(O)c1 (centres undefined)	13.5
CCOP(=S)(OCC)SCS(=O)(=O)C(C)(C)C	9.01

Structure (SMILES)	LC retention time [min]
CCOC(=O)C1(c2ccccc2)CCN(CCC(C#N)(c2ccccc2)c2ccccc2)CC1	10.4
COC(=O)C(C)N(C(=O)c1ccco1)c1c(C)cccc1C (centres undefined)	8.99
CC1=C(C(=O)O)N2C(=O)C(NC(=O)C(N)c3ccccc3)C2SC1 (centres undefined)	4.08
CCC(C)C1OC2(C=CC1C)CC1CC(CC=C(C)C(OC3CC(OC)C(OC4CC(OC)C(NC)C(C)O4)C(C)O3)C(C)C=CC=C3COC4C(O)C(C)=CC(C(=O)O1)C34O)O2 (centres undefined)	12.4
CN1CCC23c4c5ccc(O)c4OC2C(=O)CCC3(O)C1C5 (centres undefined)	2.75
CCOC1Oc2ccc(OS(C)(=O)=O)cc2C1(C)C (centres undefined)	9.14
CCc1cc(OC)c(CC(C)N)cc1OC (centres undefined)	6.88
N=c1nc(N2CCCCC2)cc(N)n1O	4.88
CC=C1CC(C)C(C)(O)C(=O)OCC2=CC[N+]3([O-])CCC(OC1=O)C23 (centres undefined)	5.07
COP(=S)(OC)Oc1ccc(C#N)cc1	8.27
Cc1nnc(NS(=O)(=O)c2ccc(N)cc2)s1	4.21
Cc1ccc(C(=O)c2cn(CCCCCO)c3ccccc23)c2ccccc12	10.6
COc1cc(CC(C)N)c(OC)cc1C (centres undefined)	5.83
CCOP(=S)(OCC)Oc1cnc2ccccc2n1	10.8
CNC(C)Cc1cccs1 (centres undefined)	3.69
NC(N)=NS(=O)(=O)c1ccc(N)cc1	1.93
CCOP(=O)(SC(C)CC)N1CCSC1=O (centres undefined)	7.73
CCCCCn1nc(C(=O)Oc2cccc3cccnc23)c2ccccc21	11.4
CC(N)Cc1ccc(O)cc1 (centres undefined)	2.98

Further lines, results first:

LC retention time [min]	Structure (SMILES)
1.38	C=CC(N)CCC(=O)O (centres undefined)
6.96	COc1ccc(CCNCCCC(C#N)(c2ccc(OC)c(OC)c2)C(C)C)cc1OC (centres undefined)
7.66	CC(C)OC(=O)Nc1ccc2nc(-c3cscn3)[nH]c2c1
7.08	CC(C(=O)O)c1ccc(CC(C)(C)O)cc1 (centres undefined)
7.46	CSc1nnc(C(C)(C)C)c(=O)[nH]1
8.31	CC(CN(C)C)CN1c2ccccc2CCc2ccccc21 (centres undefined)
5.36	CCCCNC(=O)NS(=O)(=O)c1ccc(N)cc1
5.01	CCCCCC(C)N (centres undefined)
4.99	CN1C2CCCC1CC(NC(=O)c1nn(C)c3ccccc13)C2 (centres undefined)
7.68	CCCCNC(=O)NS(=O)(=O)c1ccc(C)cc1
3.93	Cn1c(=O)c2[nH]cnc2n(C)c1=O
9.81	CCCc1nn(C)c2c(=O)[nH]c(-c3cc(C(C)=O)ccc3OCC)nc12
4.39	N=C(N)N1CCc2ccccc2C1
5.59	Cc1cccc(C)c1OCC(C)N (centres undefined)
9.91	CCCc1nn(C)c2c(=S)nc(-c3cc(S(=O)(=O)N4CC(C)NC(C)C4)ccc3OCC)[nH]c12 (centres undefined)
9.24	CC=CC(=O)N(CC)c1ccccc1C
7.41	CC(=O)Nc1ccc(OC(=O)c2ccccc2OC(C)=O)cc1
4.93	COCCc1ccc(OCC(O)CNC(C)C)cc1 (centres undefined)
5.28	CC(COc1ccccc1)NC(C)C(O)c1ccc(O)cc1 (centres undefined)
7.16	COC(=O)c1ccc(C)cc1C1=NC(C)(C(C)C)C(=O)N1 (centres undefined)
4.93	CC(=O)c1cc2cccc(OCC(O)CNC(C)C)c2o1 (centres undefined)
11.5	CCCc1nn(C)c2c(=S)nc(-c3cc(C(=S)N4CCN(C)CC4)ccc3OCC)[nH]c12
10.9	CC(C)(C)c1ccc(C(=O)CCCN2CCC(OC(c3ccccc3)c3ccccc3)CC2)cc1
8.12	CCCCOCCOCCSC#N
9.82	COc1ccc2cc(CCC(C)=O)ccc2c1
7.75	Cc1cc(C(C)(C)C)cc(C)c1CC1=NCCN1
7.8	COc1ccc(CNC(=O)c2cc([N+](=O)[O-])ccc2NC(C)CO)cc1OC (centres undefined)

LC retention time [min]	Structure (SMILES)
5.63	CCC(=O)C1C(=O)CC(C(=O)O)CC1=O (centres undefined)
1.93	CNCC(O)c1cccc(O)c1 (centres undefined)
6.66	COC(=O)Nc1nc2ccc(S(=O)c3ccccc3)cc2[nH]1 (centres undefined)
5.21	COc1ccccc1OCC(O)COC(N)=O (centres undefined)
3.24	NC(N)=Nc1nc(CSCCC(N)=NS(N)(=O)=O)cs1
5.09	CN1C2CCC1CC(OC(=O)c1c[nH]c3ccccc13)C2 (centres undefined)
11.3	CCCCOc1ccc(C(=O)OCCN(CC)CC)cc1
3.97	CN=C(NC)NCc1ccccc1
2.94	CCN1CCCC1CNC(=O)c1cc(S(N)(=O)=O)ccc1OC (centres undefined)
12.5	COc1cccc(N(C)C(=S)Oc2cccc(C(C)(C)C)c2)n1
12.9	CCC(C)(C)c1ccc(CC(C)CN2CC(C)OC(C)C2)cc1 (centres undefined)
6.76	CC(C)(C)NCC(O)COc1cccc2c1SCCC2 (centres undefined)
5.34	COc1cc2nc(N3CCN(C(=O)c4ccco4)CC3)nc(N)c2cc1OC
6.18	CNCC(c1ccc(OC)cc1)C1(O)CCCCC1 (centres undefined)
4.31	Cc1cc(C)nc(NS(=O)(=O)c2ccc(N)cc2)n1
1.31	NC(=O)C1CCCN1 (centres undefined)
14.4	CCC(C)C1OC2(CCC1C)CC1CC(CC=C(C)C(OC3CC(OC)C(OC4CC(OC)C(O)C(C)O4)C(C)O3)C(C)C=CC=C3COC4C(O)C(C)=CC(C(=O)O1)C34O)O2 (centres undefined)
7.88	CCCc1nn(C)c2c(=O)[nH]c(-c3cc(S(=O)(=O)N4CCN(C)CC4)ccc3OCC)nc12
5.59	CCNC(=O)c1ccc(OC)cc1
9.79	Cc1ccc(S(=O)(=O)NC(=O)NC2C3CCC(C)(C2O)C3(C)C)cc1 (centres undefined)
8.74	CC12CCC(=O)C=C1CCC1C2C(O)CC2(C)C(C(=O)CO)CCC12 (centres undefined)
12	CCOc1c(N)c2c(c(OCC)c1OCC)C(C1c3c(cc4c(c3OC)OCO4)CCN1C)OC2=O (centres undefined)
10.1	CN(C)c1nc(N(C)C)nc(N(C)C)n1
15.1	CC1CCC2(OC1)OC1CC3C4CC=C5CC(O)CCC5(C)C4CCC3(C)C1C2C (centres undefined)
6.01	CC#CCn1c(N2CCCC(N)C2)nc2c1c(=O)n(Cc1nc(C)c3ccccc3n1)c(=O)n2C (centres undefined)
7.95	CN(C)CCC=C1c2ccccc2C=Cc2ccccc21
